# Entries after “also recorded” stand apart in the source; their conditions may differ.
# Legend:
# yucca mutant = format: in vivo, Arabidopsis thaliana
# [1] = system: Arabidopsis WT and yucca mutants; format: in vivo, Arabidopsis thaliana; settings: for sensitivity of yucca mutants to tryptophan analogs: yucca mutants compared with normal toxicity to plants
# Procedure: Enhanced expression of the YUCCA gene overproduces auxin. […] Massive root growth was observed when yucca explants grew in Murashige and Skoog (MS) media. Callus was induced by adding cytokinin, and young yucca plants that are regenerated in MS media containing cytokinin. A GUS reporter gene controlled by an auxin responsive element was expressed at much higher level in yucca. […] In addition, YUCCA appears to be involved in tryptophan-dependent auxin synthesis. […] In the presence of 100 μM 5-methyl tryptophan, WT plant material died while yucca survived.
# [2] = target: T1, recombinant YUCCA gene product (SEQ ID NO. 2) (Arabidopsis thaliana, UniProt Q9SZY8); test: FMO activity assay of recombinant YUCCA gene product with tryptamine (TLC, mass spectroscopy); format: biochemical; settings: 2 mM tryptamine, 1 mM NADP+, glucose-6-phosphate, glucose-6-phosphate dehydrogenase, 37° C.
# T1 construct: 2, was recovered from the E. coli overexpression system; made in house; host or cells: E. coli (vector pMalC2)
# T1 sequence (Q9SZY8 1-414): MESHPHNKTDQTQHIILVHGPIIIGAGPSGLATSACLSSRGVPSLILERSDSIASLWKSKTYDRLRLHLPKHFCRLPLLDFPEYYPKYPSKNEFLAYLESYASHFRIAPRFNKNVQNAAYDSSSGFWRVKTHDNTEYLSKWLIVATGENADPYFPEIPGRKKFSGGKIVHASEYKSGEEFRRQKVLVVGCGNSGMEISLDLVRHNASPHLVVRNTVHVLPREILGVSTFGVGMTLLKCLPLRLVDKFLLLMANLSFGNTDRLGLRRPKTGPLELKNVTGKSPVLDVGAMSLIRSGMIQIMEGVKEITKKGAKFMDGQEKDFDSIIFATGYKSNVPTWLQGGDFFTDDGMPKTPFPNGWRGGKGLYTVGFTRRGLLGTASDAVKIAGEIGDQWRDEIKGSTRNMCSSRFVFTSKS
# Text: Enzymatic activity of the YUCCA gene product. In one experiment, the YUCCA gene was transformed into an E. coli overexpression vector and the recombinant YUCCA gene product, a polypeptide having the amino acid sequence of SEQ ID NO. 2, was recovered from the E. coli overexpression system. […] Thus, the amino acid sequence of SEQ ID NO: 2 can be used to metabolize tryptamine, whether endogenous or exogenous, as well as to generate N-hydroxyl tryptamine.
# Effect of YUCCA overexpression in E. coli on detectable FMO activity. To test the enzymatic activity of the YUCCA gene product, YUCCA (SEQ ID NO. 1) was transformed into an E. coli overexpression vector pMalC2 and the recombinant YUCCA gene product was recovered, using the method of Brunelle et al., (Drug Metab Dispos (1997) 25:1001). For activity assays, the recombinant YUCCA gene product was incubated with 2 mM tryptamine, 1 mM NADP^+, 1 mM glucose-6-phosphate, and glucose-6-phosphate dehydrogenase at 37° C. Reactions were stopped by adding an equal volume of methanol. Substrate and products were separated by thin-layer-chromatography (TLC) with CH2CL2/methanol/TEA (75:20:5). The product was eluted from TLC plates and mass spectroscopy was performed to determine the molecular mass of the product.
# [3] = system: Arabidopsis WT and yucca mutants; test: Auxin transport block by NPA in growth medium, club root development; format: in vivo, Arabidopsis thaliana
# Text: It was also discovered that auxin transport in yucca was blocked by application of transport inhibitor naphthylthalamic acid (NPA), resulting in yucca mutants having a giant root, called a “club root” due to its thick, short appearance. This club root was substantially thicker than the regular yucca root, which is already thicker than the WT root. […] The club root produced by blocking auxin transport in yucca mutants may provide an important tool for studying root growth and development.
compound,measurement,setting,value
C=C [Ethylene],effect on the yucca mutant,yucca mutant; ethylene treatment,little effect
N[C@@H](Cc1c[nH]c2ccc(F)cc12)C(=O)O [5-fluoro-tryptophan],sensitivity of yucca mutants to tryptophan analogs,[1],less sensitive
"NC1(C(=O)O)CC1 [ACC, 1-aminocyclopropane-1-carboxylate]",effect on yucca cotyledon,yucca mutant; 5 μM,did not change the appearance of the yucca cotyledon
same,effect on yucca hypocotyl,yucca mutant; 5 μM,suppressed the elongated yucca hypocotyl
NCCc1c[nH]c2ccccc12 [tryptamine],substrate conversion by recombinant YUCCA gene product,[2],able to convert tryptamine to N-hydroxyl tryptamine; also recorded: use tryptamine as a substrate to generate N-hydroxyl tryptamine
Cc1ccc2[nH]cc(C[C@H](N)C(=O)O)c2c1 [5-methyl tryptophan],survival of WT plant material,"[1]; WT, in the presence of 100 μM",died
same,survival of yucca,"[1]; yucca mutant, in the presence of 100 μM",survived
same,sensitivity of yucca mutants to tryptophan analogs,[1],less sensitive
"O=C(O)c1ccccc1C(=O)Nc1cccc2ccccc12 [NPA, naphthylthalamic acid]",club root development in wild type,[3]; Wild type (WT) Arabidopsis,did not develop a club root
same,club root development in yucca mutants,[3]; 50 μM in the growth medium,multiple club roots
same,club root development in yucca mutants,[3]; 100 μM in the growth medium,a single club root

# Reference: patent US6455760B1, “Expression of flavin-containing monoxygenases in plants” (The Salk Institute of Biological Studies, priority 2000, dated 2002)
